# Assay results reported in patent US20240398737A1, “FUNCTIONALIZED LONG-CHAIN HYDROCARBON MONO- AND DI-CARBOXYLIC ACIDS AND DERIVATIVES THEREOF, AND THEIR USE FOR THE PREVENTION OR TREATMENT OF DISEASE” (Espervita Therapeutics, Inc., priority 2021, published 2024).
# Entries after “also recorded” stand apart in the source; their conditions may differ.
# Experiments:
# Human ACC2 = Human ACC2 (Homo sapiens (Human), UniProt O00763); test: ACC2 enzymatic assay (ADP-Glo); format: biochemical; set-up: key to Compound IC50 (M) ACC2: *: No detectable inhibition or compound activity; settings: recombinant human ACC2 1 nM; 10 concentrations from 300 μM; Runs 1-3
# Chain of Human ACC2 (O00763 whole entry): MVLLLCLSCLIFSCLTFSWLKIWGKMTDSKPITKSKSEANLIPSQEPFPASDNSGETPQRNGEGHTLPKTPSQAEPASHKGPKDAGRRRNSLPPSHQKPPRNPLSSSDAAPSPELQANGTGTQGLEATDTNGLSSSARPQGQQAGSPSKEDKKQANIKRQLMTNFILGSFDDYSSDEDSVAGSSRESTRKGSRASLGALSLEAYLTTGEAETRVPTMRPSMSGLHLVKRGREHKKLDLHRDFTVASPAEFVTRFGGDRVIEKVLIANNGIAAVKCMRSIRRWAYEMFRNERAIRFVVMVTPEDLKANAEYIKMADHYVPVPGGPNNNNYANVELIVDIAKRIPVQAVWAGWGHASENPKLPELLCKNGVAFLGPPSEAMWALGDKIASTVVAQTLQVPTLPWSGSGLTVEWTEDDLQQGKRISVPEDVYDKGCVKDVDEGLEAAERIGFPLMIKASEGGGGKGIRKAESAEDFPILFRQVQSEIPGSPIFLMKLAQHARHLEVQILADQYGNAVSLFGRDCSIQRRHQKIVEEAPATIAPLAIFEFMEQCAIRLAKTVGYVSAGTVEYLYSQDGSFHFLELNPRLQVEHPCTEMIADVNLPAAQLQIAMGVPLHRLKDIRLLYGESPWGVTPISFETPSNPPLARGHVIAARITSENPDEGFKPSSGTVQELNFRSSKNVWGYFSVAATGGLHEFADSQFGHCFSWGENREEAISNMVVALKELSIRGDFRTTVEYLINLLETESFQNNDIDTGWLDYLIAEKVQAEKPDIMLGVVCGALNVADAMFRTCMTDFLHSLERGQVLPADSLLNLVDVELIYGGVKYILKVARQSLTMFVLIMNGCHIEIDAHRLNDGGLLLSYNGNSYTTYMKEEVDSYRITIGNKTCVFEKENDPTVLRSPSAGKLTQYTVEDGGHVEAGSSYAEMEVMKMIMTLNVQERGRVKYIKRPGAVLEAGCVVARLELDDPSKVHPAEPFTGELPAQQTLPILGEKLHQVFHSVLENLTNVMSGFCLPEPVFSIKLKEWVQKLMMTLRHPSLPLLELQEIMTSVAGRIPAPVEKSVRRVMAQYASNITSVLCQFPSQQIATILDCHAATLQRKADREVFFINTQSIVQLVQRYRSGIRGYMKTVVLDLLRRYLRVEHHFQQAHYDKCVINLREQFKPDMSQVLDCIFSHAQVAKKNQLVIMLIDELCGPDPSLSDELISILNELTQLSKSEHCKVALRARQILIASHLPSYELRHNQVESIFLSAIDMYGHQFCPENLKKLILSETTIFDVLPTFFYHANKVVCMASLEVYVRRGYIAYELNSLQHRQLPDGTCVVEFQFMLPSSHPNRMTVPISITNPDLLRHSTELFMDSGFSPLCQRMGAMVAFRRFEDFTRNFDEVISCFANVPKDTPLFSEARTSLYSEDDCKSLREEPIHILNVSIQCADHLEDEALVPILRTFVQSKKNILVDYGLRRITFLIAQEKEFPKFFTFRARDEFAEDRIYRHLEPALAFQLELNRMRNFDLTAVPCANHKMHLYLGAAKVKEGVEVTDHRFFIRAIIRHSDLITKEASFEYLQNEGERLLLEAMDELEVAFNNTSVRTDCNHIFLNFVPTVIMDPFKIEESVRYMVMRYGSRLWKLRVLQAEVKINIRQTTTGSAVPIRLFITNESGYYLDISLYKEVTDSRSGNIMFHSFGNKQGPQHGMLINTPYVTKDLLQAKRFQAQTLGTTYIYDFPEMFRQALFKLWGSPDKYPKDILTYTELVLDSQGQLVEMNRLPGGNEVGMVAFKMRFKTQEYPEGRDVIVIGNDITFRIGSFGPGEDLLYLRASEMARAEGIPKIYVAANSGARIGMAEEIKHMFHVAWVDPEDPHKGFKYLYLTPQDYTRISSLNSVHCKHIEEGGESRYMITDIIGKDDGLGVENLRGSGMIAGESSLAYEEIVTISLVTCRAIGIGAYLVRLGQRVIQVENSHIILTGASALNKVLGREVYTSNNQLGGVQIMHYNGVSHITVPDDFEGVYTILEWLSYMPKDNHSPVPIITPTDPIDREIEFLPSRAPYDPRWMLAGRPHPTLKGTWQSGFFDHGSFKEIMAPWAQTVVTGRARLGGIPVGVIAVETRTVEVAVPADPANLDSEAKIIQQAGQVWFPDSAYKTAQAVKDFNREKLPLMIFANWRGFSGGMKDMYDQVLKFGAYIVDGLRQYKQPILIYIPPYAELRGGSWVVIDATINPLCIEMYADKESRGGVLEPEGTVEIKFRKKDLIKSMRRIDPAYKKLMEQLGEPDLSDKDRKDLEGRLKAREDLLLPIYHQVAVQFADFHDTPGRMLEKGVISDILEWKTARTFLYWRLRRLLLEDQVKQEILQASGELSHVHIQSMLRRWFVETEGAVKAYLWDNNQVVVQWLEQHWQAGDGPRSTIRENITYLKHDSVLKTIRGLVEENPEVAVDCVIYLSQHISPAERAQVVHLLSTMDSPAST
# Experimental: Human ACC1 (Cat #50202 Lot #120830) and ACC2 (Cat #50201 Lot #160217) were obtained from BPS Biosciences, San Diego, CA 92121. Human ACC1 had C-terminal flag and His-tags with a MW of 270 KDa after purification from Baculovirus infected Sf9 cell expression system and came as a solution in 50 mM Tris-HCl, pH 8.0, 500 mM NaCl, 10% glycerol, 1 mM DTT, 100 μg/ml FLAG peptide with 70% purity. The stock concentration was 0.25 mg/ml corresponding to 0.926 μM. Human ACC2 was also purified from Baculovirus infected Sf9 expression system. […] The stock concentration was 0.1 mg/ml corresponding to 0.36 μM. The assay buffer for measuring the activity of ACC contained: 30 mM HEPES (pH 7.4), 2 mM MgCl2, 0.01% Brij35, 2 mM DTT, 1% DMSO (solvent for compound). For ACC1 and ACC2 assays, the following concentrations of substrate and cofactors were used: 12 mM NaHCO3, 10 μM acetyl CoA, 10 μM ATP, and 2 mM K-citrate. The recombinant human enzyme was used at 5 nM for ACC1 and 1 nM for ACC2. In brief, enzyme alone in the above buffer without substrate was used for background. All test materials were dissolved in 100% DMSO using acoustic technology (Echo550). The prepared solution was preincubated for 15 min followed by the addition of 5 μL/well of ADP standard. ATP was then added to start the reaction. The assay contents were spun and briefly shaken followed by incubation at room temperature for 1 h. At the end of completion of assay, 5 μL of ADP-Glo was added to each well to stop the reaction. The contents were mixed, spun and incubated at room temperature for 40 min followed by the addition of 10 μL/well of ADP detection reagent. The contents were spun, mixed and covered with plastic to measure luminescence. […] The light generated, measured in a luminometer, correlates to the amount of ADP generated in the ACC assay, which is indicative of ACC activity.
# The enzyme concentrations for ACC1 and ACC2 were 5 nM and 1 nM, respectively.
# Data represent nM or μM ADP produced, % Activity (relative to no inhibitor controls), and curve fits were performed by GraphPad Prism software. The IC50 concentration-response curves were generated for both the ACC1 and ACC2 assays using recombinant human ACC.
# Aurora B = Aurora B (Homo sapiens (Human), UniProt Q96GD4); test: Wild type kinase screen: Aurora B; format: biochemical; settings: compound at 10 μM, 10 μM ATP, Data 1 and Data 2 duplicates
# Chain of Aurora B (Q96GD4 whole entry): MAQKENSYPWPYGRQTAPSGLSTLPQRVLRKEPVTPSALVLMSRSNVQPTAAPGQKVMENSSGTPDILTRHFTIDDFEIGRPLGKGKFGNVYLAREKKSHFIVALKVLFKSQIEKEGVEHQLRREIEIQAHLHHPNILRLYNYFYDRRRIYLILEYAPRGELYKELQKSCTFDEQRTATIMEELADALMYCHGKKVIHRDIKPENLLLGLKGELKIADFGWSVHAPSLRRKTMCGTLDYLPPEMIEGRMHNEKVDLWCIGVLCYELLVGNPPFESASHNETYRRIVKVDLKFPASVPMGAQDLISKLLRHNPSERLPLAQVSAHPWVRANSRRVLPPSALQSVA
# female Wistar Han rats = test: 4-day oral gavage toxicity study in female rats; settings: 4 days; for Compound-related effects in hematology or coagulation test results / Compound-related mortality, clinical observations, body weight effects, or changes in food consumption: 100 or 300 mg/kg/day oral gavage once daily; for Compound-related macroscopic observations: 100 or 300 mg/kg/day
# MELK = MELK (Homo sapiens (Human), UniProt Q14680); test: Wild type kinase screen: MELK; format: biochemical; settings: compound at 10 μM, 10 μM ATP, Data 1 and Data 2 duplicates
# Chain of MELK (Q14680 whole entry, species assumed): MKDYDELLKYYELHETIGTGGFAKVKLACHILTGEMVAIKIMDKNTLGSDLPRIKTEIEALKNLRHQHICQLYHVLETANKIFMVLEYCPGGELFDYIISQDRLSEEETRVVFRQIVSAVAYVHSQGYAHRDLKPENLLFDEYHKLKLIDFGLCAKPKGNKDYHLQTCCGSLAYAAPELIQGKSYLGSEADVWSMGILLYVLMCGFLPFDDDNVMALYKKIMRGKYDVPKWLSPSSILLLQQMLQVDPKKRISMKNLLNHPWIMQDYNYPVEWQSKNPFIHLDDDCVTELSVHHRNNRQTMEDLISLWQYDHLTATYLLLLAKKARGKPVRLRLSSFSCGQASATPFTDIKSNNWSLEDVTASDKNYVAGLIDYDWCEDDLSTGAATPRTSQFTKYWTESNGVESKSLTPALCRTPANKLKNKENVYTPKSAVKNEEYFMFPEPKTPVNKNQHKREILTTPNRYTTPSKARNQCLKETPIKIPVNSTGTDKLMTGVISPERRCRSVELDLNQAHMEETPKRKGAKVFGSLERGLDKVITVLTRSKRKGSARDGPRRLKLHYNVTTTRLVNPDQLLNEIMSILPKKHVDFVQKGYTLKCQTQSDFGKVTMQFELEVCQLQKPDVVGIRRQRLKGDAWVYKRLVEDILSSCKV
# human ACLY = human ACLY (Homo sapiens (Human), UniProt P53396); test: ATP-citrate lyase (ACLY) enzymatic assay (ADP-Glo); format: biochemical; set-up: key to Compound IC50 (M) ACLY: *: No detectable inhibition or compound activity; settings: recombinant human ACLY; 10 concentrations from 300 μM; Runs 1-3
# Chain of human ACLY (P53396 whole entry): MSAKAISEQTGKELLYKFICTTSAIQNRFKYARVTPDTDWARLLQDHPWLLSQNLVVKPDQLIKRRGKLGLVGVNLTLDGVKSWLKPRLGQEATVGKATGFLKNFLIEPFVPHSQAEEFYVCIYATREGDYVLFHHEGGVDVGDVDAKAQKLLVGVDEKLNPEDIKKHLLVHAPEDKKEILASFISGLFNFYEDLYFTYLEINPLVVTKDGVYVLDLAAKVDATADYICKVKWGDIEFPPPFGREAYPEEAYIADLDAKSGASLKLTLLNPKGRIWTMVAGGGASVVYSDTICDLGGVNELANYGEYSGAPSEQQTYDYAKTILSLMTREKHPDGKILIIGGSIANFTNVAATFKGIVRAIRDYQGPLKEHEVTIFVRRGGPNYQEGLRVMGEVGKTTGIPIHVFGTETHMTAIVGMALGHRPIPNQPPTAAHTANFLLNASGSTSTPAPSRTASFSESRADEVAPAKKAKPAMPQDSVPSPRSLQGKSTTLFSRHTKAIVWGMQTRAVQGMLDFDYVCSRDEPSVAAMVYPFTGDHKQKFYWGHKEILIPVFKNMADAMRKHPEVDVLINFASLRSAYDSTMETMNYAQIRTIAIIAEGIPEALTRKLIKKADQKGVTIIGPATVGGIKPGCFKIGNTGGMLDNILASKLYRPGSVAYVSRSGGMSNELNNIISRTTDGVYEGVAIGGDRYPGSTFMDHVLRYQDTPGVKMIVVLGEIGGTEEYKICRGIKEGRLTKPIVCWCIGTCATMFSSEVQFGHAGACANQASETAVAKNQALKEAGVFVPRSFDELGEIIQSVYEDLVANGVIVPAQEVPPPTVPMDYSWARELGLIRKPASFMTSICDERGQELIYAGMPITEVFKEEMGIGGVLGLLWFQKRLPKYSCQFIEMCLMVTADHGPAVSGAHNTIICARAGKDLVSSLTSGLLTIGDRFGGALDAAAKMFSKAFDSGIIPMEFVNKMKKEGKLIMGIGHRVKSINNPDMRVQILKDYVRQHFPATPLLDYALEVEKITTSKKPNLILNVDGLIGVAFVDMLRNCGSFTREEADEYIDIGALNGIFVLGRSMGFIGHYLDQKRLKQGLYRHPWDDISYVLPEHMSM
# Experimental: ATP citrate lyase was obtained from Sino Biological Inc. Cat #11769-H07B, Lot #LC08DE1701. It was prepared from a DNA sequence encoding the human ACLY (P53396) (Met 1-Met 1101) expressed in Baculovirus-Insect Cells, with a polyhistidine tag at the N-terminus. The recombinant human ACLY consists of 1120 amino acids and has a calculated molecular mass of 123 kDa. It migrates as an approximately 110 kDa band in SDS-PAGE under reducing conditions. The enzyme came as a lyophilized powder in sterile 20 mM Tris, 500 mM NaCl, pH 8.0, 10% glycine. Normally 5%-8% trehalose and mannitol are added as protectants before lyophilization. The recombinant human ACLY from Sino Biological was formulated in 45 mM Tris-HCl, pH 8.0, 124 mM NaCl, 2.4 mM KCl, 18 mM glutathione, 10% glycerol, and 3 mM DTT.
# To detect ADP produced from ACL assay, the ADP-Glo™ assay format from Promega, Madison, WI, was used, to detect the conversion of ATP to ADP. […] This assay is performed in two steps: i) after the ACL-mediated enzymatic reaction that utilizes ATP and produces ADP, ADP-Glo™ Reagent is added to terminate the kinase reaction and deplete the remaining ATP, and ii) the Kinase Detection Reagent is added to convert ADP to ATP and allow the newly synthesized ATP to be measured using a luciferase/luciferin reaction. The light generated, measured in a luminometer, correlates to the amount of ADP generated in the ACL assay, which is indicative of ACL activity.
# Data represent nM or μM ADP produced, % Activity (relative to no inhibitor controls), and curve fits were performed by GraphPad Prism software. The IC50 concentration-response curves were generated for ADPGlo™ using recombinant human ACL from Sino Biologicals Inc.
Structure (SMILES),Compound IC50 (M) ACC2 (Human ACC2),% Enzyme Activity (relative to DMSO controls) (Aurora B) [%],Adversity of the effects at this dose (female Wistar Han rats; 100 mg/kg/day),Albumin:globulin ratio (clinical chemistry) (female Wistar Han rats; 100 mg/kg/day),Globulin concentration (clinical chemistry) (female Wistar Han rats; 100 mg/kg/day),Adversity of the effects at this dose (female Wistar Han rats; 300 mg/kg/day),Albumin:globulin ratio (clinical chemistry) (female Wistar Han rats; 300 mg/kg/day),Globulin concentration (clinical chemistry) (female Wistar Han rats; 300 mg/kg/day),Kidney microscopic findings (female Wistar Han rats; 300 mg/kg/day),Compound-related effects in hematology or coagulation test results (female Wistar Han rats),"Compound-related mortality, clinical observations, body weight effects, or changes in food consumption (female Wistar Han rats)",Compound-related macroscopic observations (female Wistar Han rats),Liver microscopic findings (female Wistar Han rats; >100 mg/kg/day (so in the source)),% Enzyme Activity (relative to DMSO controls) (MELK) [%],Compound IC50 (M) ACLY (human ACLY),Liver microscopic findings (female Wistar Han rats; 300 mg/kg/day),"Serum urea nitrogen concentration (female Wistar Han rats; 300 mg/kg/day, considered potentially compound-related)"
"CC(C)(CCCCc1ccc(CCCCC(C)(C)C(=O)O)cc1)C(=O)O [Compound I-1, 6-[4-(5-carboxy-5-methylhexyl)-phenyl]-2,2-dimethylhexanoic acid]",*,63.21,nonadverse,minimally higher,minimally lower,adverse,minimally higher,minimally lower,"tubular degeneration/necrosis, tubular regeneration, and increased mitoses",No,No,No,increase in mitoses in hepatocytes,106.55,*,–,–
"CC(C)(CCCCc1cccc(CCCCC(C)(C)C(=O)O)c1)C(=O)O [Compound I-32, 6-[3-(5-carboxy-5-methylhexyl)-phenyl]-2,2-dimethylhexanoic acid]",*,67.29,–,–,–,nonadverse,minimally higher,minimally lower,–,No,No,No,–,110.73,*,increase in mitoses in hepatocytes; also recorded: periportal hepatocyte vacuolation,Minimally lower
